# Laboratory results taken from EP0271099A2, “Substituted aminopropionic acid amides, process for their preparation, agents containing them and their use as well as the intermediates formed during the preparation” (HOECHST AKTIENGESELLSCHAFT, priority 1986, dated 1988).
# Like-named read-outs stand apart in the source and are kept apart here.
# Test system: ECS-Amnesie
# Assay: Inhibitory (passive) avoidance test, reversal of amnesia induced by electroconvulsive shock
# Format: in vivo, Mäusen
# Conditions: Mus musculus
# Description: Die Verbindungen der Formel I besitzen wertvolle pharmakologische Eigenschaften, insbesondere nootrope. Die nootrope Wirkung der erfindungsgemäßen Verbindungen wurde an Mäusen, die ein Köpergewicht von 20-25 g besaßen, im inhibitory (passive) avoidance test geprüft. Eine modifizierte Form der von J. Kopp, Z. Bodanecky und M.E. Jarvik beschriebenen Testmethode wurde von J. Bures, O. Buresova und J. Huston im "Techniques and Basic Experiments for the Study of Brain and Behavior", Elsevier Scientific Publishers, Amsterdam 1983, beschrieben.
# Entsprechend diesen Literaturangaben wird eine Substanz dann als nootrop wirksam bezeichnet, wenn sie bei den Versuchstieren die mittels eines elektroconvulsiven Schocks erzeugte Amnesie (ECS-Amnesie) aufzuheben vermag.
# Die Versuche wurden nach modifizierten Testmethoden mit den erfindungsgemäßen Verbindungen durchgeführt. Als Vergleichsverbindung diente das bekannte Nootropikum 2-Oxo-1-pyrrolidinylessigsäureamid (Piracetam). Die deutliche Überlegenheit der erfindungsgemäßen Verbindungen über die Vergleichssubstanz zeigte sich darin, daß der amnestische Effekt bereits mit einer MED (minimal effective dosis) von 0,1-10 mg/kg p.o. aufzuheben ist. Die Vergleichssubstanz hat eine MED von ca. 500-1000 mg/kg p.o..
# [1] = mice 20-25 g, oral, MED = minimal effective dosis reversing ECS-Amnesie, Table 1, read-out: Inhibitory avoidance MED mg/kg p.o. ECS-Amnesie
# [2] = po, read-out: Inhibitory avoidance MED mg/kg p.o. ECS-Amnesie
Compound,minimal effective dose [1] [mg/kg],minimal effective dose [2] [mg/kg],"minimal effective dose (po, read-out: MED (minimal effective dosis)) [mg/kg]"
"O=C(O)CCCc1ccc(NC(=O)CCN2CCC(c3ccccc3)CC2)cc1 [Beispiel 45, 4-{4-[3-(4-Phenylpiperidino)-propionamido]-phenyl}-buttersäure]",25,–,–
"O=C(O)CCc1ccc(NC(=O)CCN2CCN(c3cccc(Cl)c3)CC2)cc1 [Beispiel 34, 3-{4-(3-(4-(3-Chlorphenyl)-piperazino)-propionamido]-phenyl}-propionsäure]",1.6,–,–
"NC(=O)CN1CCCC1=O [Piracetam, 2-Oxo-1-pyrrolidinylessigsäureamid, reference compound]",–,1000,500 to 1000
"O=C(O)CCc1ccc(NC(=O)CCN2CCN(c3ccccc3)CC2)cc1 [Beispiel 46, 3-{4-[3-(4-Phenylpiperazino)-propionamido]-phenyl}-propionsäure]",25,–,–
"O=C(O)C=Cc1ccc(NC(=O)CCN2CCN(c3cccc(Cl)c3)CC2)cc1 [Beispiel 35, 4-{3-[4-(3-Chlorphenyl)-piperazino]-propionamido}-zimtsäure]",50,–,–
"O=C(O)CCc1ccc(NC(=O)CCN2CCN(CCCc3ccccc3)CC2)cc1 [Beispiel 47, 3-{4-[3-(4-(3-Phenylpropyl)-piperazino)-propionamido]-phenyl}-propionsäure]",25,–,–
"O=C(O)CCc1ccc(NC(=O)CCN2CC=C(c3cccc(Cl)c3)CC2)cc1 [Beispiel 49, 3-{4-[3-(4-(3-Chlorphenyl)-1,2,5,6-tetrahydropyridino)-propionamido]-phenyl}-propionsäure]",–,25,–
"O=C(O)CCc1ccc(NC(=O)CCNCCCc2ccccc2)cc1 [Beispiel 48, 3-{4-[3-(3-Phenylpropylamino)-propionamido]-phenyl}-propionsäure]",50,–,–
